Reference: PubChem BioAssay AID1259407 (Chemical Carcinogenesis Research Information System (CCRIS), 2018)
The source made the active and inactive calls. No rule for the calls is given here.

Tested on: CCRIS mutagenicity, Ames/micronucleus/aberration tests
Experiment: CCRIS mutagenicity studies
[1] = Test System: AMES SALMONELLA TYPHIMURIUM, Strain/Indicator: TA98, Metabolic Activation: NONE, Method: STANDARD PLATE
[2] = Test System: AMES SALMONELLA TYPHIMURIUM, Strain/Indicator: TA100, Metabolic Activation: NONE, Method: STANDARD PLATE
[3] = Test System: AMES SALMONELLA TYPHIMURIUM, Strain/Indicator: TA100, Metabolic Activation: RAT, LIVER, S-9, AROCLOR 1254, Method: STANDARD PLATE

SMILES: C=C(C)C(=O)OCC(C)(C)C
- mutagenic call [1]: inactive; negative
- mutagenic call (Test System: AMES SALMONELLA TYPHIMURIUM, Strain/Indicator: TA98, Metabolic Activation: RAT, LIVER, S-9, AROCLOR 1254, Method: STANDARD PLATE): inactive; negative
- mutagenic call (Test System: AMES SALMONELLA TYPHIMURIUM, Strain/Indicator: TA98, Metabolic Activation: RAT, LIVER, S-9, SODIUM PHENOBARBITAL, Method: STANDARD PLATE): inactive; negative
- mutagenic call [2]: inactive; negative
- mutagenic call [3]: inactive; negative
- mutagenic call (Test System: AMES SALMONELLA TYPHIMURIUM, Strain/Indicator: TA100, Metabolic Activation: RAT, LIVER, S-9, SODIUM PHENOBARBITAL, Method: STANDARD PLATE): inactive; negative
- mutagenic call (Test System: AMES SALMONELLA TYPHIMURIUM, Strain/Indicator: TA1535, Metabolic Activation: NONE, Method: STANDARD PLATE): inactive; negative
- mutagenic call (Test System: AMES SALMONELLA TYPHIMURIUM, Strain/Indicator: TA1535, Metabolic Activation: RAT, LIVER, S-9, AROCLOR 1254, Method: STANDARD PLATE): inactive; negative
- mutagenic call (Test System: AMES SALMONELLA TYPHIMURIUM, Strain/Indicator: TA1535, Metabolic Activation: RAT, LIVER, S-9, SODIUM PHENOBARBITAL, Method: STANDARD PLATE): inactive; negative
- mutagenic call (Test System: AMES SALMONELLA TYPHIMURIUM, Strain/Indicator: TA1537, Metabolic Activation: NONE, Method: STANDARD PLATE): inactive; negative
- mutagenic call (Test System: AMES SALMONELLA TYPHIMURIUM, Strain/Indicator: TA1537, Metabolic Activation: RAT, LIVER, S-9, AROCLOR 1254, Method: STANDARD PLATE): inactive; negative
- mutagenic call (Test System: AMES SALMONELLA TYPHIMURIUM, Strain/Indicator: TA1537, Metabolic Activation: RAT, LIVER, S-9, SODIUM PHENOBARBITAL, Method: STANDARD PLATE): inactive; negative
- mutagenic call (Test System: AMES SALMONELLA TYPHIMURIUM, Strain/Indicator: TA1538, Metabolic Activation: NONE, Method: STANDARD PLATE): inactive; negative
- mutagenic call (Test System: AMES SALMONELLA TYPHIMURIUM, Strain/Indicator: TA1538, Metabolic Activation: RAT, LIVER, S-9, AROCLOR 1254, Method: STANDARD PLATE): inactive; negative
- mutagenic call (Test System: AMES SALMONELLA TYPHIMURIUM, Strain/Indicator: TA1538, Metabolic Activation: RAT, LIVER, S-9, SODIUM PHENOBARBITAL, Method: STANDARD PLATE): inactive; negative

SMILES: C=C(C)C
- mutagenic call (Test System: AMES SALMONELLA TYPHIMURIUM, Strain/Indicator: TA97, Metabolic Activation: HAMSTER LIVER S-9, AROCLOR 1254 (10% OR 30%), Method: DESICCATOR): inactive; negative
- mutagenic call (Test System: AMES SALMONELLA TYPHIMURIUM, Strain/Indicator: TA97, Metabolic Activation: NONE, Method: DESICCATOR): inactive; negative
- mutagenic call (Test System: AMES SALMONELLA TYPHIMURIUM, Strain/Indicator: TA97, Metabolic Activation: RAT LIVER S-9, AROCLOR 1254 (10% OR 30%), Method: DESICCATOR): inactive; negative
- mutagenic call (Test System: AMES SALMONELLA TYPHIMURIUM, Strain/Indicator: TA98, Metabolic Activation: HAMSTER LIVER S-9, AROCLOR 1254 (10% OR 30%), Method: DESICCATOR): inactive; negative
- mutagenic call (Test System: AMES SALMONELLA TYPHIMURIUM, Strain/Indicator: TA98, Metabolic Activation: NONE): inactive; negative
- mutagenic call (Test System: AMES SALMONELLA TYPHIMURIUM, Strain/Indicator: TA98, Metabolic Activation: NONE, Method: DESICCATOR): inactive; negative
- mutagenic call (Test System: AMES SALMONELLA TYPHIMURIUM, Strain/Indicator: TA98, Metabolic Activation: NONE, Method: GAS EXPOSURE): inactive; negative
- mutagenic call (Test System: AMES SALMONELLA TYPHIMURIUM, Strain/Indicator: TA98, Metabolic Activation: RAT LIVER S-9, AROCLOR 1254 (10% OR 30%), Method: DESICCATOR): inactive; negative
- mutagenic call (Test System: AMES SALMONELLA TYPHIMURIUM, Strain/Indicator: TA98, Metabolic Activation: RAT LIVER S-9, PHENOBARBITAL AND BETA-NAPHTHOFLAVONE (40%), Method: GAS EXPOSURE): inactive; negative
- mutagenic call (Test System: AMES SALMONELLA TYPHIMURIUM, Strain/Indicator: TA98, Metabolic Activation: RAT, LIVER, S-9, KC 500): inactive; negative
- mutagenic call (Test System: AMES SALMONELLA TYPHIMURIUM, Strain/Indicator: TA100, Metabolic Activation: HAMSTER LIVER S-9, AROCLOR 1254 (10% OR 30%), Method: DESICCATOR): inactive; negative
- mutagenic call (Test System: AMES SALMONELLA TYPHIMURIUM, Strain/Indicator: TA100, Metabolic Activation: NONE): inactive; negative
- mutagenic call (Test System: AMES SALMONELLA TYPHIMURIUM, Strain/Indicator: TA100, Metabolic Activation: NONE, Method: DESICCATOR): inactive; negative
- mutagenic call (Test System: AMES SALMONELLA TYPHIMURIUM, Strain/Indicator: TA100, Metabolic Activation: NONE, Method: FLASK ASSAY): inactive; negative
- mutagenic call (Test System: AMES SALMONELLA TYPHIMURIUM, Strain/Indicator: TA100, Metabolic Activation: NONE, Method: GAS EXPOSURE): inactive; negative
- mutagenic call (Test System: AMES SALMONELLA TYPHIMURIUM, Strain/Indicator: TA100, Metabolic Activation: RAT LIVER S-9, AROCLOR 1254 (10% OR 30%), Method: DESICCATOR): inactive; negative
- mutagenic call (Test System: AMES SALMONELLA TYPHIMURIUM, Strain/Indicator: TA100, Metabolic Activation: RAT LIVER S-9, PHENOBARBITAL AND BETA-NAPHTHOFLAVONE (40%), Method: GAS EXPOSURE): inactive; negative
- mutagenic call (Test System: AMES SALMONELLA TYPHIMURIUM, Strain/Indicator: TA100, Metabolic Activation: RAT, LIVER, S-9, KC 500): inactive; negative
- mutagenic call (Test System: AMES SALMONELLA TYPHIMURIUM, Strain/Indicator: TA102, Metabolic Activation: NONE, Method: FLASK ASSAY): inactive; negative
- mutagenic call (Test System: AMES SALMONELLA TYPHIMURIUM, Strain/Indicator: TA1535, Metabolic Activation: HAMSTER LIVER S-9, AROCLOR 1254 (10% OR 30%), Method: DESICCATOR): inactive; negative
- mutagenic call (Test System: AMES SALMONELLA TYPHIMURIUM, Strain/Indicator: TA1535, Metabolic Activation: NONE): inactive; negative
- mutagenic call (Test System: AMES SALMONELLA TYPHIMURIUM, Strain/Indicator: TA1535, Metabolic Activation: NONE, Method: DESICCATOR): inactive; negative
- mutagenic call (Test System: AMES SALMONELLA TYPHIMURIUM, Strain/Indicator: TA1535, Metabolic Activation: NONE, Method: FLASK ASSAY): inactive; negative
- mutagenic call (Test System: AMES SALMONELLA TYPHIMURIUM, Strain/Indicator: TA1535, Metabolic Activation: NONE, Method: GAS EXPOSURE): inactive; negative
- mutagenic call (Test System: AMES SALMONELLA TYPHIMURIUM, Strain/Indicator: TA1535, Metabolic Activation: RAT LIVER S-9, AROCLOR 1254 (10% OR 30%), Method: DESICCATOR): inactive; negative
- mutagenic call (Test System: AMES SALMONELLA TYPHIMURIUM, Strain/Indicator: TA1535, Metabolic Activation: RAT LIVER S-9, PHENOBARBITAL AND BETA-NAPHTHOFLAVONE (40%), Method: GAS EXPOSURE): inactive; negative
- mutagenic call (Test System: AMES SALMONELLA TYPHIMURIUM, Strain/Indicator: TA1535, Metabolic Activation: RAT, LIVER, S-9, KC 500): inactive; negative
- mutagenic call (Test System: AMES SALMONELLA TYPHIMURIUM, Strain/Indicator: TA1537, Metabolic Activation: NONE): inactive; negative
- mutagenic call (Test System: AMES SALMONELLA TYPHIMURIUM, Strain/Indicator: TA1537, Metabolic Activation: NONE, Method: GAS EXPOSURE): inactive; negative
- mutagenic call (Test System: AMES SALMONELLA TYPHIMURIUM, Strain/Indicator: TA1537, Metabolic Activation: RAT LIVER S-9, PHENOBARBITAL AND BETA-NAPHTHOFLAVONE (40%), Method: GAS EXPOSURE): inactive; negative
- mutagenic call (Test System: AMES SALMONELLA TYPHIMURIUM, Strain/Indicator: TA1537, Metabolic Activation: RAT, LIVER, S-9, KC 500): inactive; negative
- mutagenic call (Test System: AMES SALMONELLA TYPHIMURIUM, Strain/Indicator: TA1538, Metabolic Activation: NONE): inactive; negative
- mutagenic call (Test System: AMES SALMONELLA TYPHIMURIUM, Strain/Indicator: TA1538, Metabolic Activation: RAT, LIVER, S-9, KC 500): inactive; negative
- mutagenic call (Test System: E. COLI, Strain/Indicator: WP2 UVRA, Metabolic Activation: NONE): inactive; negative
- mutagenic call (Test System: E. COLI, Strain/Indicator: WP2 UVRA, Metabolic Activation: RAT, LIVER, S-9, KC 500): inactive; negative
- mutagenic call (Test System: E.COLI, Strain/Indicator: WP2UVRA, Metabolic Activation: NONE, Method: GAS EXPOSURE): inactive; negative
- mutagenic call (Test System: E.COLI, Strain/Indicator: WP2UVRA, Metabolic Activation: RAT LIVER S-9, PHENOBARBITAL AND BETA-NAPHTHOFLAVONE (40%), Method: GAS EXPOSURE): inactive; negative

SMILES: ONc1cccc2ccccc12
- mutagenic call [1]: active; positive
- mutagenic call [2]: active; positive

SMILES: O[C@@H]1C2=c3c(cc4cccc5ccc(c3c54)[C@H]1O)-c1ccccc12
- mutagenic call [3]: inactive; negative

SMILES: Nc1ccc(Cc2cc(O)c(N)c(Cl)c2)cc1Cl
- mutagenic call (Test System: AMES SALMONELLA TYPHIMURIUM, Strain/Indicator: TA98, Metabolic Activation: NONE, Method: PREINCUBATION): inactive; negative
- mutagenic call (Test System: AMES SALMONELLA TYPHIMURIUM, Strain/Indicator: TA100, Metabolic Activation: NONE, Method: PREINCUBATION): inactive; negative
